According to patent publication US10493254B2, “Permeant delivery system and methods for use thereof” (priority 2008, dated 2019):

Experiment: Exenatide delivery from liquid patch with permeability enhancer through microporated abdomen
Settings: hairless rat abdomen microporated; patch with 20 OuL solution of exenatide (10.5 mg/mL) and agent (3% w/v); fresh solution every four hours

For `O=C([O-])CC(O)(CC(=O)[O-])C(=O)O.[Na+].[Na+]` [disodium citrate], the “exenatide levels over 24 hours” value was “roughly steady levels”.
